Experimental data reported in US20260308159A1, “BICYCLIC HETEROARYLAMIDES HAVING GPR68 MODULATING ACTIVITY” (RECURSION PHARMACEUTICALS, INC., priority 2023, published 2026).

target: T1, human GPR68 (Homo sapiens, UniProt Q15743); test: GPR68 Biochemical Assay (Promega GloSensor cAMP assay, GPR68 antagonism); assay type: cell-based; conditions: HEK293T cells transiently expressing hGPR68, antagonism of pH 5.5 stimulated cAMP, 15 min, read-out: hGPR68 IC50
T1 construct: encoding full-length human GPR68 (uniprot ID: Q15743); expressed in transfected cells; host or cells: HEK293T
T1 sequence (Q15743 whole entry): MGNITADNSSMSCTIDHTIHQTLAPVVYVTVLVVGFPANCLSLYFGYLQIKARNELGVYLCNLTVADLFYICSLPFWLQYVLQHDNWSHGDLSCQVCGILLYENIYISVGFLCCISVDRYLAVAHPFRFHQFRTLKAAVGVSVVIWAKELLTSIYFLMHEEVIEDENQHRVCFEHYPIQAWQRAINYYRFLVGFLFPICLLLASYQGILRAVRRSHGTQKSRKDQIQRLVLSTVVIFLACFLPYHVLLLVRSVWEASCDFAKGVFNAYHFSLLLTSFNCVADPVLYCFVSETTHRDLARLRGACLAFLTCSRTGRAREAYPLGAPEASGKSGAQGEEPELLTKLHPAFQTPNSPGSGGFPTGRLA
Procedure, shortened: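 Readout is GloSensor cAMP luminescence after 15 min at room temperature, normalised between pH 5.5 stimulation and pH 8.0 minimum controls; IC50 fitted sigmoidally. Test compounds, up to 50 μM final (9-point half-log, 0.5% DMSO), were co-added with pH 5.5 buffer to HEK293T cells transiently expressing full-length human GPR68 plus GloSensor.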

| Compound | IC50 [nM] |
| --- | --- |
| Cc1nn2c(C(=O)NC3CC(F)(F)C3)c(-c3cn[nH]c3)cnc2c1C(N)=O [Compound 32, N7-(3,3-difluorocyclobutyl)-2-methyl-6-(1H-pyrazol-4-yl)pyrazolo[1,5-a]pyrimidine-3,7-dicarboxamide] | 500 to 5000 |
| NC(=O)c1cnn2c(C(=O)NC3Cc4ccccc4C3)ccnc12 [Compound 1, N7-indan-2-ylpyrazolo[1,5-a]pyrimidine-3,7-dicarboxamide] | 50 to 500 |
| NC(=O)c1cnn2c(C(=O)NC3CNc4ccccc4C3)ccnc12 (stereo not shown) [Compound 5, N7-(1,2,3,4-tetrahydroquinolin-3-yl)pyrazolo[1,5-a]pyrimidine-3,7-dicarboxamide] | 500 to 5000 |
| N#C[C@H]1C[C@@H](NC(=O)c2ccnc3c(C(N)=O)cnn23)C1 [Compound 9, N7-(cis-3-cyanocyclobutyl)pyrazolo[1,5-a]pyrimidine-3,7-dicarboxamide] | 500 to 5000 |
| COCc1nn2c(C(=O)NC3(C)Cc4ccccc4C3)ccnc2c1C(N)=O [Compound 121, 2-(methoxymethyl)-N7-(2-methylindan-2-yl)pyrazolo[1,5-a]pyrimidine-3,7-dicarboxamide] | 50 to 500 |
| CNC(=O)c1c(COC)nn2c(C(=O)N[C@H]3C[C@@H](OC(F)(F)F)C3)ccnc12 [Compound 161, 2-(methoxymethyl)-N3-methyl-N7-[cis-3-(trifluoromethoxy)cyclobutyl]pyrazolo[1,5-a]pyrimidine-3,7-dicarboxamide] | 500 to 5000 |
| COCc1nn2c(C(=O)N[C@H]3CCOc4ccccc43)ccnc2c1C(N)=O [Compound 172, N7-[(4S)-chroman-4-yl]-2-(methoxymethyl)pyrazolo[1,5-a]pyrimidine-3,7-dicarboxamide] | 50 to 500 |
| NC(=O)c1c(OCC2CC2)nn2c(C(=O)N[C@H]3C[C@@H](OC(F)(F)F)C3)ccnc12 [Compound 162, 2-(cyclopropylmethoxy)-N7-[cis-3-(trifluoromethoxy)cyclobutyl]pyrazolo[1,5-a]pyrimidine-3,7-dicarboxamide] | 50 to 500 |
| COCc1nn2c(C(=O)N[C@H]3C[C@H](C)C3)ccnc2c1C(N)=O [Compound 86, 2-(methoxymethyl)-N7-(trans-3-methylcyclobutyl)pyrazolo[1,5-a]pyrimidine-3,7-dicarboxamide] | 50 to 500 |
| Cc1nn2c(C(=O)NC3Cc4ccc(Cc5ccccc5)cc4C3)ccnc2c1C(N)=O (stereo not shown) [Compound 51, N7-(5-benzylindan-2-yl)-2-methyl-pyrazolo[1,5-a]pyrimidine-3,7-dicarboxamide] | 5000 to 50000 |
| NC(=O)c1cnn2c(C(=O)NC3Cc4nccn4C3)ccnc12 (stereo not shown) [Compound 19, N7-(6,7-dihydro-5H-pyrrolo[1,2-a]imidazol-6-yl)pyrazolo[1,5-a]pyrimidine-3,7-dicarboxamide] | 5000 to 50000 |
| Cc1nn2c(C(=O)N[C@H]3C[C@@H](OC(F)(F)F)C3)ccnc2c1C(N)=O [Compound 53, 2-methyl-N7-[cis-3-(trifluoromethoxy)cyclobutyl]pyrazolo[1,5-a]pyrimidine-3,7-dicarboxamide] | 50 to 500 |
| NC(=O)c1c(CO)nn2c(C(=O)NC3CC(F)(F)C3)ccnc12 [Compound 207, N7-(3,3-difluorocyclobutyl)-2-(hydroxymethyl)pyrazolo[1,5-a]pyrimidine-3,7-dicarboxamide] | 500 to 5000 |
| COCc1nn2c(C(=O)NCC3CC3(C)C)ccnc2c1C(N)=O (stereo not shown) [Compound 77, N7-[(2,2-dimethylcyclopropyl)methyl]-2-(methoxymethyl)pyrazolo[1,5-a]pyrimidine-3,7-dicarboxamide] | 500 to 5000 |
| CNc1nn2c(C(=O)N[C@H]3C[C@@H](OC(F)(F)F)C3)ccnc2c1C(N)=O [Compound 145, 2-(methylamino)-N7-[cis-3-(trifluoromethoxy)cyclobutyl]pyrazolo[1,5-a]pyrimidine-3,7-dicarboxamide] | < 50 |
| CN(C)Cc1nn2c(C(=O)NC3Cc4ccccc4C3)ccnc2c1C(N)=O [Compound 29, 2-[(dimethylamino)methyl]-N7-indan-2-yl-pyrazolo[1,5-a]pyrimidine-3,7-dicarboxamide] | 500 to 5000 |
| NC(=O)c1c(CO)nn2c(C(=O)NC3Cc4ccccc4C3)ccnc12 [Compound 204, 2-(hydroxymethyl)-N7-indan-2-yl-pyrazolo[1,5-a]pyrimidine-3,7-dicarboxamide] | 50 to 500 |
| COCc1nn2c(C(=O)NC3(C)CC4(CC(F)(F)C4)C3)ccnc2c1C(N)=O [Compound 124, N7-(2,2-difluoro-6-methyl-spiro[3.3]heptan-6-yl)-2-(methoxymethyl)pyrazolo[1,5-a]pyrimidine-3,7-dicarboxamide] | 500 to 5000 |
| COCc1nn2c(C(=O)N[C@@H]3Cc4ccccc4[C@@H]3O)ccnc2c1C(N)=O (relative stereo) [Compound 200, N7-(cis-1-hydroxyindan-2-yl)-2-(methoxymethyl)pyrazolo[1,5-a]pyrimidine-3,7-dicarboxamide] | < 50 |
| COCc1nn2c(C(=O)NC(C)c3ccc(F)cc3)ccnc2c1C(N)=O (stereo not shown) [Compound 122, N7-[1-(4-fluorophenyl)ethyl]-2-(methoxymethyl)pyrazolo[1,5-a]pyrimidine-3,7-dicarboxamide] | 50 to 500 |
| COCc1nn2c(C(=O)NC3CCS(=O)(=O)c4ccccc43)ccnc2c1C(N)=O (stereo not shown) [Compound 189, N7-(1,1-dioxo-3,4-dihydro-2H-thiochromen-4-yl)-2-(methoxymethyl)pyrazolo[1,5-a]pyrimidine-3,7-dicarboxamide] | < 50 |
| NC(=O)c1cnn2c(C(=O)NC3CNc4ncccc4C3)ccnc12 (stereo not shown) [Compound 20, N7-(1,2,3,4-tetrahydro-1,8-naphthyridin-3-yl)pyrazolo[1,5-a]pyrimidine-3,7-dicarboxamide] | 5000 to 50000 |

Second part, the compound after the results:

| IC50 [nM] | Compound |
| --- | --- |
| < 50 | COCc1nn2c(C(=O)NC3Cc4ccc(F)cc4C3)ccnc2c1C(N)=O (stereo not shown) [Compound 194, N7-(5-fluoroindan-2-yl)-2-(methoxymethyl)pyrazolo[1,5-a]pyrimidine-3,7-dicarboxamide] |
| < 50 | COCc1nn2c(C(=O)N[C@@H]3CCOc4cc(F)ccc43)ccnc2c1C(N)=O [Compound 166, N7-[(4R)-7-fluorochroman-4-yl]-2-(methoxymethyl)pyrazolo[1,5-a]pyrimidine-3,7-dicarboxamide] |
| < 50 | COCc1nn2c(C(=O)NC3Cc4ccncc4C3)ccnc2c1C(N)=O (stereo not shown) [Compound 170, N7-(6,7-dihydro-5H-cyclopenta[c]pyridin-6-yl)-2-(methoxymethyl)pyrazolo[1,5-a]pyrimidine-3,7-dicarboxamide] |
| < 50 | CNc1nn2c(C(=O)NC3Cc4ccccc4C3)ccnc2c1C(N)=O [Compound 159, N7-indan-2-yl-2-(methylamino)pyrazolo[1,5-a]pyrimidine-3,7-dicarboxamide] |
| < 50 | NC(=O)c1c(C2CC2)nc2c(C(=O)N[C@H]3C[C@@H](OC(F)(F)F)C3)ccnn12 [Compound 151, 2-cyclopropyl-N8-[cis-3-(trifluoromethoxy)cyclobutyl]imidazo[1,2-b]pyridazine-3,8-dicarboxamide] |
| < 50 | CC(C)c1nn2c(C(=O)NC3CCS(=O)(=O)c4ccccc43)ccnc2c1C(N)=O (stereo not shown) [Compound 230, N7-(1,1-dioxo-3,4-dihydro-2H-thiochromen-4-yl)-2-isopropyl-pyrazolo[1,5-a]pyrimidine-3,7-dicarboxamide] |
| < 50 | COCc1nn2c(C(=O)NC3Cc4cccnc4C3)ccnc2c1C(N)=O (stereo not shown) [Compound 60, N7-(6,7-dihydro-5H-cyclopenta[b]pyridin-6-yl)-2-(methoxymethyl)pyrazolo[1,5-a]pyrimidine-3,7-dicarboxamide] |
| < 50 | NC(=O)c1c(COC2CC2)nn2c(C(=O)N[C@H]3C[C@@H](OC(F)(F)F)C3)ccnc12 [Compound 216, 2-(cyclopropoxymethyl)-N7-[cis-3-(trifluoromethoxy)cyclobutyl]pyrazolo[1,5-a]pyrimidine-3,7-dicarboxamide] |
| < 50 | [2H]C([2H])([2H])OCc1nn2c(C(=O)NC3Cc4cccnc4C3)ccnc2c1C(N)=O (stereo not shown) [Compound 160, N7-(6,7-dihydro-5H-cyclopenta[b]pyridin-6-yl)-2-(trideuteriomethoxymethyl)pyrazolo[1,5-a]pyrimidine-3,7-dicarboxamide] |
| < 50 | COCc1nn2c(C(=O)NC3CCC(F)(F)c4ccccc43)ccnc2c1C(N)=O (stereo not shown) [Compound 116, N7-(4,4-difluorotetralin-1-yl)-2-(methoxymethyl)pyrazolo[1,5-a]pyrimidine-3,7-dicarboxamide] |
| < 50 | CC(C)c1nn2c(C(=O)NC3CS(=O)(=O)c4ccccc43)ccnc2c1C(N)=O (stereo not shown) [Compound 228, N7-(1,1-dioxo-2,3-dihydrobenzothiophen-3-yl)-2-isopropyl-pyrazolo[1,5-a]pyrimidine-3,7-dicarboxamide] |
| < 50 | COCc1nn2c(C(=O)NC3CC(F)(F)c4ccccc43)ccnc2c1C(N)=O (stereo not shown) [Compound 129, N7-(3,3-difluoroindan-1-yl)-2-(methoxymethyl)pyrazolo[1,5-a]pyrimidine-3,7-dicarboxamide] |
| < 50 | NC(=O)c1c(C2CC2)nn2c(C(=O)N[C@H]3C[C@@H](OC(F)(F)F)C3)ccnc12 [Compound 111, 2-cyclopropyl-N7-[cis-3-(trifluoromethoxy)cyclobutyl]pyrazolo[1,5-a]pyrimidine-3,7-dicarboxamide] |
| < 50 | CCOCc1nn2c(C(=O)NC3Cc4ccccc4C3)ccnc2c1C(N)=O [Compound 202, 2-(ethoxymethyl)-N7-indan-2-yl-pyrazolo[1,5-a]pyrimidine-3,7-dicarboxamide] |

same assay, conditions: hGPR68 IC50, HEK293T cells transiently expressing hGPR68, antagonism of pH 5.5 stimulated cAMP, 15 min

| IC50 [nM] | Compound |
| --- | --- |
| 50 to 500 | NC(=O)c1c(C2CC2)nn2c(C(=O)NC3CCC(F)(F)CC3)cnnc12 [Compound 156, 7-cyclopropyl-N4-(4,4-difluorocyclohexyl)pyrazolo[5,1-c][1,2,4]triazine-4,8-dicarboxamide] |
